Data published in publication PMC5808361 (Journal of Medicinal Chemistry, 2017).
Like-named read-outs stand apart in the source and are kept apart here.

Columns and labels:
[1] = test system: 55 protein targets (47 GPCRs, five ion channels, and three transporters); test: CEREP selectivity panel; type: binding; settings: at 10 μM
[2] = target: PRMT3 (Homo sapiens, UniProt O60678); test: PRMT3 biochemical assay
[3] = target: human Flag-tagged PRMT3 (Homo sapiens, UniProt O60678); test: Cellular PRMT3 assay; type: cell-based
Chain of human Flag-tagged PRMT3 (O60678 whole entry): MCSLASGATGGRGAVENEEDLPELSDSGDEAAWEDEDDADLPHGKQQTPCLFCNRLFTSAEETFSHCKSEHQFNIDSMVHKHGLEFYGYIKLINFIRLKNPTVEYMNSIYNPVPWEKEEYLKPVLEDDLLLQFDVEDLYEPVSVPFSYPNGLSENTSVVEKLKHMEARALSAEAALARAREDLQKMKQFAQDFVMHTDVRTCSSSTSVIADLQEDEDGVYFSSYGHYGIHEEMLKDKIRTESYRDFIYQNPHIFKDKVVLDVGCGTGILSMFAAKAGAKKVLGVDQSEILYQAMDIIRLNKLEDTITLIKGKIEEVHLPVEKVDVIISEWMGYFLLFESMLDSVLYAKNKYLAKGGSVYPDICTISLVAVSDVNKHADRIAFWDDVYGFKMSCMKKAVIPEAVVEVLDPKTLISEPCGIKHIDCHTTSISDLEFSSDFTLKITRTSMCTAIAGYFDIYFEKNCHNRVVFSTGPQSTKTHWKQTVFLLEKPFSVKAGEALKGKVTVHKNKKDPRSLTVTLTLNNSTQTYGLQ

[4] = test system: 31 other lysine methyltransferases, arginine methyltransferases, and DNA and RNA methyltransferases; test: Methyltransferase selectivity assays; type: biochemical; settings: compound concentrations of 1, 5, and 20 μM

Chain of PRMT3 (O60678 whole entry): as above

CC1CCC(C)N1C(=O)CNC(=O)Nc1ccc2cnccc2c1 (stereo not drawn) [Compound 30, 1-(2-(2,5-Dimethylpyrrolidin-1-yl)-2-oxoethyl)-3-(isoquinolin-6-yl)urea]
% of inhibition (off-target activities) [1]: < 50%

CN1CCN(C(=O)CNC(=O)Nc2ccc3cnccc3c2)CC1 [Compound 18, 1-(Isoquinolin-6-yl)-3-(2-(4-methylpiperazin-1-yl)-2-oxoethyl)urea]
PRMT3 inhibitory activity (in words) ([2]; PRMT3 biochemical assay): loss of the inhibitory activity

O=C(NCC(=O)N1CC(F)(F)C(F)(F)C1)Nc1ccc2cnccc2c1 [Compound 29, 1-(Isoquinolin-6-yl)-3-(2-oxo-2-(3,3,4,4-tetrafluoropyrrolidin-1-yl)ethyl)urea]
% of inhibition (off-target activities) [1]: < 50% | effect on H4R3me2a levels (in words) ([3]; 1 μM compound, compared with catalytically dead PRMT3 mutant E335Q): matched with that of the catalytically dead PRMT3 mutant E335Q | selectivity for PRMT3 over 31 other methyltransferases (in words) [4]: highly selective for PRMT3

CON(C)C(=O)CNC(=O)Nc1ccc2cnccc2c1 [Compound 22, 2-(3-(Isoquinolin-6-yl)ureido)-N-methoxy-N-methylacetamide]
fold less potent than 5 ([2]; PRMT3 IC50 relative to compound 5): around 6 fold

O=C(NCC(=O)N1CCCC1)Nc1cc2ccncc2cc1F [Compound 36, 1-(7-Fluoroisoquinolin-6-yl)-3-(2-oxo-2-(pyrrolidin-1-yl)ethyl)urea]
% of inhibition (off-target activities) [1]: < 50% | effect on H4R3me2a levels (in words) [3]: matched with that of the catalytically dead PRMT3 mutant E335Q | selectivity for PRMT3 over 31 other methyltransferases (in words) [4]: highly selective for PRMT3
